# Reference: US7001770B1, “Calpain inhibitors and their applications” (priority 1998, dated 2006)
# Peptide text beside a SMILES is read from it.
# Key:
# HLF cells = test: Apoptosis by annexin V-FITC staining, flow cytometry; format: cell-based; conditions: calpain inhibitor 2 at 10 μM
# Method: (§1) P53 was administered to the cells by the use of the replication defective adenoviral vector ACN53 described in Wills, et al., supra. The effect of varying concentrations of rAd-p53 (from […] to 2×10^9 rAd-p53 particles/ml of solution) was investigated in combination with CI-1 in a range of 5–20 μm. The effects of individual and combination treatment was determined in the in DLD1, RKO, HLF and SK-Hep1 cells was investigated in substantial accordance with the teaching of Examples 2 and 3 herein. The percentage of apoptotic cells was determined at 17 hours post treatment (with the exception of U87 cells (24 hours) and HeLa cells (68 hours)) with annexin V positive staining. The results are presented in graphical format in FIG. 3 of the attached drawings. In brief, the results were as follows:
# To quantitate the increased efficacy of rAd-p53 induced cell killing in tumor cell lines in response to CI-1 treatment, HLF cells were infected with increasing concentrations of rAd-p53 with or without 10 μM CI-1, and assayed for percentage apoptotic cells by annexin V-FITC staining 42 hours post-treatment in substantial accordance with the teaching of Example 3 herein. […] No increase in annexin V-FITC positive cells was detected at 1×10^5 particles/ml rAd-p53 with or without 10 μM CI-1. At 1×10^6 particles/ml rAd-p53, the percentage apoptotic cells without CI-1 was 14%, while 40% of annexin V positive cells was detected when cell were treated with 10 μM CI-1. At a concentration of 1×10^7 ACN53 particles/ml, 17% annexin V positive without and 63% with 10 μM CI-1 was detected. At 1×10^8 particles/ml, 52% were annexin V positive without and 70% positive with inhibitor treatment. At a dose of 1×10^9 particles of rAd-p53, however, the percentage annexin V positive was about the same for both 77% without and 74% with 10 μM CI-1. […] concentration of rAd-p53 was sufficient to induce approximately 50% cell death, while only a 1×10^7 particle/ml concentration rAd-p53 was needed to induce approximately the same percentage of cell death when 10 μM CI-1 as added.
# (§2) The effect of an inhibitor of μ-calpains, CI-1 (N-acetyl-leu-leu-norleucinal), was investigated for its ability to enhance p53 mediated apoptosis in tumor cell lines having p53+ and p53− status listed in Table1. Each cell line was treated with 5–50 μM CI-1 for 17–26 hours. To detect a G0/G1 block, bromodeoxyuridine (BrdU) incorporation followed by flow cytometric analysis was done 17 hours post-treatment as described in Example 4 herein. […] The results of these experiments are presented in FIGS. 1 and 2 of the attached drawings. In FIG. 1, each point on the graph represents percentage annexin V positive after background percentage (DMF alone) was subtracted.
# (§3) An aliquot containing approximately 1×10^6 cells of each type was placed in a T-225 flask. The effect of varying concentrations of rAd-p53 (from 1×10^7 to 2×10^9ACN53 particles/ml of solution) was investigated in combination with CI-1 in a range of 5–20 μM. In each instance, the cell line was infected with 1×10^7–1×10^9 particles/ml of cell culture with the ACN53 using the empty cassette virus (ZZCB) as a control. In each instance, the cells were exposed to the virus for a period of one hour. At the end of this time, the virus was washed off the from the cells and fresh media containing an appropriate concentration of CI-1 was added.
# HLF cells were infected at increasing log concentrations of rAd-p53 ranging from 1×10^5 to 1×10^9 for one hour at which time virus was washed off and replaced with fresh media (viral infection with no treatment) or with 10 μM calpain inhibitor 1. Cells were assayed for apoptosis by annexin V-FITC staining at 24 and 42 hours post-infection.
# CI-1 was obtained from Boehringer-Mannheim Biochemicals (Indianapolis, Ind.). The CI-1 containing media was prepared as follows. CI-1 was diluted in dimethylformamide (DMF) to a concentration of 33.3 μM/μl. […]
# SK-Hep1 cells = test: as above; format: cell-based; conditions: calpain inhibitor 2 at 20 μM; endogenous wildtype p53
# Method: as §1, §2, §3
# CI-1 was obtained from Boehringer-Mannheim Biochemicals (Indianapolis, Ind.). The CI-1 containing media was prepared as follows. CI-1 was diluted in dimethylformamide (DMF) to a concentration of 33.3 μM/μl. The CI-1 solution in DMF was added to achieve a final concentration in the media of 5 or 10 μM final concentration of CI-1. An equivalent volume of DMF alone was added to the control cells. Calpain inhibitor 2, N-acetyl-leu—leu-methioninal (Boehringer Mannheim) was added to cell lines at 5–50 μM final concentration with or without rAd-p53 for 26 hours.
# At a time of 17 (or 26 hours) post infection, the percentage of cells undergoing apoptosis was determined by convential apoptotic markers. Apoptosis was monitored visually by observing blebbed nuclei characteristic of apoptosis, by propidium iodide staining (using propidium iodide commercially available from Molecular Probes, Inc.) followed by flow cytometric analysis to look for subgenomic populations of cells, and by labeling cells with annexin V-FITC (commercially available from Boehringer Mannheim) in substantial accordance with the instructions provided by the manufacturer, followed by flow cytometric analysis on a FACScan Flow Cytometer (commercially available from Becton Dickinson).
structure (smiles),measurement,setting,value
"CSCC[C@@H](C=O)NC(=O)[C@H](CC(C)C)NC(=O)[C@H](CC(C)C)NC(C)=O [CI-2, N-acetyl-leu—leu-methioninal] (Ac-Leu-Leu-Met-aldehyde)",effect on the induction of apoptosis in combination with rAd-p53,HLF cells,no significant effect
same,increase in annexin V-FITC positive cells,SK-Hep1 cells,no significant increase
